{"source": "patent US10117890B2", "about": "“Methods and compositions for treating pain” (Academia Sinica, priority 2012, dated 2018)", "key": {"[1]": {"tested_on": "acid(ASIC3)-induced chronic muscle pain", "test": "Acid-induced chronic muscle pain model (repeated intramuscular acid injection, von Frey test)", "assay_type": "in vivo, mice", "details": "for acid-induced hyperalgesia, co-injection with acidic saline: 1 nmole, i.m.", "description": "Adult (8- to 12-wk-old) C57/BL6 mice were used. All procedures followed the Guide for the Use of Laboratory Animals (National Academy Press, Washington D.C., USA) and were approved by the Institutional Animal Care and Use Committee of Academia Sinica. We aimed to minimize the number of animals used and their suffering without compromising the quality of the experiments. The generation and genotyping of Tac1^−/− mice and Asic3^−/− mice were as described. Both null mutant mice were backcrossed to C57/BL6 for 10 generations to establish a congenic strain. Congenic Tac1^−/− Asic3^−/− mice were offspring of Tacl^+/− and Asic3^+/− intercrosses.\nMice received an intramuscular acid injection in the gastrocnemius muscle (GM) containing 20 μl acid saline (pH 4.0) with or without (Sar^9, Met(O2)^11)-substance P (SP; 4, 10, or 40 μM) or 100 μM RP67580 or 200 μM XE991. Mechanical hyperalgesia was assessed by applying a 0.2-mN von Frey filament to the plantar surface of both hind paws of mice. Mice were acclimatized in an acrylic cubicle for 60 min before testing. A positive response was defined as the foot lifting when the von Frey filament was applied. For each paw, the filament was applied 5 times at 30-sec intervals. Responses of the paw to mechanical stimuli were measured before injection and at 4 and 24 hr and 5 days after the first acid injection (day 0) and at 4, 24, and 72 hr and 1 week after the second acid injection (day 5). For single-injection experiments, responses to mechanical stimuli were measured before the injection, at 4 hr and at 1, 3, 5, 7, 9, 11, 13, 15 and 22 days after the injection or at 4, 24, 48 hr and 7 and 14 days after the injection. NK1-selective agonist ((Sar^9, Met(O2)^11)—SP) was from Sigma Chemical (St. Louis, Mo.). NK1-selective antagonist (RP67580) and XE991 were from Tocris (Avonmouth, UK). The experimenters were blinded to the experimental manipulations. The person who conducted von Frey test had no information of the mouse genotypes or drug injections."}, "[2]": {"tested_on": "muscle nociceptors (ASIC3-positive muscle afferent DRG neurons expressing ISP-O)", "test": "Whole-cell patch-clamp recording of outward currents in muscle afferent DRG neurons", "assay_type": "cell-based, mice", "details": "for induction of outward current in ASIC3/SP-expressing muscle DRG neurons: SP-sensitive muscle nociceptors; for inhibition of T1-11-induced outward current (IT1-11) by adenosine receptor antagonists: muscle nociceptors", "procedure": "The digested DRG neurons were washed with fetal calf serum (FCS)-free DMEM or DMEM containing 10% FCS during each treatment. Fully digested DRGs were triturated and plated on poly-L-lysine-coated cover slides. Cell cultures were maintained in a 5% CO2 incubator at 37° C.\nWhole-cell patch-clamp recordings of muscle-afferent neurons involved use of Axopatch MultiClamp 700B (Axon Instruments). Neurons with membrane potential >−40 mV were discarded. The bridge was balanced in current-clamp recording, and the series resistance was compensated 70% in voltage-clamp recording with […] 700B compensation circuitry. All experiments were performed at room temperature (21-25° C.) and completed within 30 hr post-seeding. Unless specifically mentioned, the patch pipettes were prepared in 1-5 MΩ and filled with internal solution containing (in mM) 100 KCl, 2 Nae-ATP, 0.3 Na3-GTP, 10 EGTA, 5 MgCl2, and 40 HEPES, adjusted to pH 7.4 with KOH. Recording cells were superfused in artificial cerebrospinal fluid (ACSF) by control with gravitational force. The ACSF contained (in mM) 130 NaCl, 5 KCl, 1 MgCl2, 2 CaCl2, 10 glucose, and 20 HEPES, adjusted to pH 7.4 with NaOH. Osmolarity was adjusted to 300 mOsm. The acidic ACSF was titrated to pH 6.8 by […]. […] If not specifically mentioned, drugs listed above were from Sigma Chemical (St. Louis, Mo.).\nThe procedure was repeated at least 2 times to ensure consistent data. […] ACSF-containing compounds were superfused for 1 min to ensure complete replacement of previous perfusate between treatments. […] A recording pipette containing 1 mM GDP-β-S was used in GTP dialysis. The GABA-B current was induced by 100 μM Baclofen at the beginning of dialysis (0, 1 and 2 min after whole-cell patch clamp). Then, Baclofen was used to re-stimulate the dialyzed neurons after 10-min dialysis (10, 11 and 12 min after whole-cell patch clamp)."}, "ASIC3": {"tested_on": "ASIC3", "test": "Whole-cell patch clamp of acid-induced current in CHO cells transfected with ASIC3", "assay_type": "cell-based"}, "ICS-induced pain": {"tested_on": "ICS-induced pain", "test": "Intermittent cold stress (ICS) mouse model of fibromyalgia, von Frey test", "assay_type": "in vivo, mice", "details": "SM-substance P 0.6 mg/kg alone", "procedure": "Mechanical hyperalgesia was assessed by applying a 0.2 mN von Frey filament to the plantar surface of both hind paws. For each paw, the filament was applied for 5 times at 30-s intervals.\nTo induce fibromyalgia-like symptoms, mice were treated with intermittent cold stress, which produces long-lasting (more than 2 weeks) thermal hyperalgesia and mechanical allodynia, predominantly in females. Method: Mice were placed on stainless mesh plate in a cold room at 4° C. overnight (from 4:30 pm to 10:00 am), followed by intermittent cold stress with environment temperatures alternating between 24 and 4° C. every 30 min, from 10:00 am to 4:30 pm. These procedures were repeated twice. On day 3, the mice were adapted to 24 C for 1 h before behavioral testing.\nThe second fibromyalgia model is developed by Ueda's group, in which mice were treated with intermittent cold stress for 2 days (Nishiyori & Ueda, 2008). Mice treated with intermittent cold stress will develop long-lasting (>2 weeks) mechanical and thermal hyperalgesia. Analgesic effect of T1-11 was tested in these mice 5 day after intermittent cold stress (ICS). […] Moreover, we found T1-11 and substance P have synergistic effect in treating the ICS-induced pain."}}, "note": "“Also recorded” adds a separate entry of the source.", "data": [{"compound": "CCNC(=O)[C@H]1O[C@@H](n2cnc3c(N)nc(NCCc4ccc(CCC(=O)O)cc4)nc32)C(O)C1O", "note": "(stereo in doubt) [CGS21680, reference compound]", "values": [{"measurement": "acid-induced hyperalgesia, co-injection with acidic saline", "setting": "[1]", "value": "partially inhibited acid-induced hyperalgesia; also recorded: showed partial analgesic effect"}, {"measurement": "outward current in A2A−/− muscle afferent DRG neurons", "setting": "[2]; CGS21680 high dose 10 μM", "value": "induces an outward current"}, {"measurement": "induction of outward current in ASIC3/SP-expressing muscle DRG neurons", "setting": "[2]", "value": "can also induce outward currents"}]}, {"compound": "OC[C@H]1O[C@@H](n2cnc3c(NCCc4c[nH]c5ccccc45)ncnc32)C(O)C1O", "note": "(stereo in doubt) [JMF1907]", "values": [{"measurement": "induction of outward current in ASIC3/SP-expressing muscle DRG neurons", "setting": "[2]", "value": "can also induce outward currents"}]}, {"compound": "CNC(=O)[C@H]1O[C@@H](n2cnc3c(NCc4cccc(I)c4)ncnc32)[C@H](O)[C@@H]1O", "note": "[IB-MECA]", "values": [{"measurement": "acid-induced hyperalgesia, co-injection with acidic saline", "setting": "[1]", "value": "has no effect on acid-induced hyperalgesia; also recorded: did not have analgesic effect"}]}, {"compound": "OC[C@H]1O[C@@H](n2cnc3c(NCc4cccc(O)c4)ncnc32)C(O)C1O", "note": "(some centres unmarked) [JMF1998]", "values": [{"measurement": "induction of outward current in ASIC3/SP-expressing muscle DRG neurons", "setting": "[2]", "value": "can also induce outward currents"}]}, {"compound": "OC[C@H]1O[C@@H](n2cnc3c(NCc4ccc(Br)cc4)ncnc32)C(O)C1O", "note": "(some centres unmarked) [JMF2665]", "values": [{"measurement": "induction of outward current in ASIC3/SP-expressing muscle DRG neurons", "setting": "[2]", "value": "can also induce outward currents"}]}, {"compound": "CCCn1cc2c(nc(NC(=O)Nc3ccc(OC)cc3)n3nc(-c4ccco4)nc23)n1", "note": "[MRE3008F20, reference compound]", "values": [{"measurement": "inhibition of T1-11-induced outward current (IT1-11) by adenosine receptor antagonists", "setting": "[2]", "value": "reversely inhibited"}]}, {"compound": "O=C(Cc1ccccc1)Nc1nc2ccc(Cl)cc2c2nc(-c3ccco3)nn12", "note": "[MRS1220, reference compound]", "values": [{"measurement": "effect of antagonist on the analgesic effect of T1-11", "setting": "[1]; MRS1220 200 pmole i.m.", "value": "abolished the analgesic effect of T1-11"}, {"measurement": "inhibition of T1-11-induced outward current (IT1-11) by adenosine receptor antagonists", "setting": "[2]", "value": "reversely inhibited"}]}, {"compound": "COc1ccccc1CC(=N)N1C[C@@H]2C(=O)CCC(c3ccccc3)(c3ccccc3)[C@@H]2C1", "note": "[RP67580, reference compound]", "values": [{"measurement": "inhibition of IT1-11 by NK1 receptor antagonist", "setting": "[2]; RP67580 (10 n=17)", "value": "inhibited IT1-11"}]}, {"compound": "O=C(O)c1ccccc1O", "note": "[salicylic acid, reference compound]", "values": [{"measurement": "acid-induced current in CHO cells transfected with ASIC3", "setting": "ASIC3", "value": "blocked"}]}, {"compound": "(Sar^9, Met(O2)^11)-substance P [SM-substance P, reference compound]", "values": [{"measurement": "analgesic effect on ICS-treated mice, SM-substance P alone", "setting": "ICS-induced pain", "value": "did not show analgesic effect"}]}, {"compound": "APETx2", "values": [{"measurement": "acid-induced hyperalgesia, co-injection of acid and APETx2", "setting": "[1]; APETx2 2 pmole at the first acid injection", "value": "abolished the transient hyperalgesia and prevented the development of chronic hyperalgesia"}]}]}
